Results taken from paper PMC10726357, “New Genetically Engineered Derivatives of Antibacterial Darobactins Underpin Their Potential for Antibiotic Development” (Journal of Medicinal Chemistry, 2023).
In brackets after ≈: the same amount, converted by molar mass. Like-named read-outs stand apart in the source and are kept apart here.

Legend:
[1] = tested on: Acinetobacter baumannii DSM-30007; type: cell-based
Experimental: (§1) The antibacterial activity of novel darobactins was determined by the evaluation of the minimum inhibitory concentration (MIC) as previously described for crude extracts and for pure darobactin analogues.[12]

[2] = for liver microsomes Clint / liver microsomes t1/2: 1 μM; for liver microsomes t1/2: 120 min incubation
Experimental: The metabolic stability of testosterone, verapamil, and ketoconazole was determined in parallel to confirm the enzymatic activity of mouse/rat liver microsomes; for human liver microsomes, testosterone, diclofenac, and propranolol were used. Incubation was stopped after defined time points by precipitation of aliquots of enzymes with 2 volumes of cold acetonitrile containing an internal standard (15 nM diphenhydramine). Samples were stored on ice until the end of the incubation, and precipitated protein was removed by centrifugation (15 min, 4 °C, and 4000g). The concentration of the remaining test compound at the different time points was analyzed by HPLC-MS/MS (TSQ Altis Plus, Thermo Fisher, Dreieich, Germany) and used to determine the half-life (t1/2).

A. baumannii DSM-30008 = type: cell-based, Acinetobacter baumannii; details: DSM-30008
Experimental: as §1

A. baumannii NCTC 13301 = type: cell-based, Acinetobacter baumannii
Experimental: as §1

A. baumannii ATCC 17978 = type: cell-based, Acinetobacter baumannii
Experimental: as §1

[3] = target: T1, EcBamA (E. coli BamA barrel domain) (Escherichia coli, UniProt P0A940, C690S/C700S); assay: Microscale thermophoresis (MST) KD determination; type: binding
T1 construct: The E. coli BamA barrel domain (BamA-β) (residues 421–810, C690S, C700S); made in house
Experimental: As an alternative to the previously published methods using isothermal titration calorimetry (ITC), we established a KD determination assay using microscale thermophoresis (MST) to enable higher throughput.
Microscale thermophoresis (MST) (serial no. 201709-BR-N024, Monolith NT.115 Micro Scale Thermophoresis, NanoTemper Technologies GmbH) was performed according to the standard protocol from the manufacturer NanoTemper Technologies GmbH using a Monolith His-Tag Labeling Kit RED-tris-NTA second-generation kit. The buffer used was HEPES (50 mM), pH 7.6, MgCl2 (5 mM), and Tween (0.05%). […] A 1:1 dilution of the ligand over 16 samples was performed using a stock of ligand (in water) diluted in HEPES buffer. Nonhydrophobic capillary tubes were used. A pretest to check for the labeling and compound fluorescence was performed for every sample followed by a binding affinity (KD) determination. Each sample was measured after 15 min of incubation at RT and analyzed in MO Control version 1.6.

[4] = human plasma; 1 μM
Experimental: (§2) To determine stability in plasma, the compound (1 μM) was incubated with pooled CD-1 mouse, Wistar rat, or human plasma (Neo Biotech, Nanterre, France). […] Samples were stored on ice until the end of the incubation, and precipitated protein was removed by centrifugation (15 min, 4 °C, 4000g, and 2 centrifugation steps). The concentration of the remaining test compound at the different time points was analyzed by HPLC-MS/MS (TSQ Quantum Access MAX, Thermo Fisher, Dreieich, Germany). The plasma stability of procaine, propantheline, and diltiazem was determined in parallel to confirm the enzymatic activity.

E. coli ATCC25922 = type: cell-based, Escherichia coli; details: ATCC25922
Experimental: as §1

[5] = rat (Wistar) plasma; 1 μM
Experimental: as §2

[6] = tested on: P. aeruginosa PA14 DSM 19882; type: cell-based, Pseudomonas aeruginosa
Experimental: as §1

P. aeruginosa PA01 = type: cell-based, Pseudomonas aeruginosa
Experimental: as §1

[7] = tested on: P. aeruginosa 84389 (MDR clinical isolate); assay: microbe, parasite or virus in culture; details: 84389 (MDR clinical isolate)
Experimental: as §1

[8] = tested on: P. aeruginosa 83979 (MDR clinical isolate); assay: microbe, parasite or virus in culture; details: 83979 (MDR clinical isolate)
Experimental: as §1

K. pneumoniae DSM-30104 = type: cell-based, Klebsiella pneumoniae; details: DSM-30104
Experimental: as §1

N=C(N)NCCC[C@H](NC(=O)[C@H]1NC(=O)[C@H](CO)NC(=O)[C@H]2NC(=O)[C@H](CCC(N)=O)NC(=O)[C@@H](N)Cc3c[nH]c4c(cccc34)O[C@@H]2c2c[nH]c3cc(ccc23)[C@@H]1CCCN)C(=O)N[C@@H](Cc1c[nH]c2ccccc12)C(=O)O [D69, darobactin 69]
MIC Acinetobacter baumannii DSM-30007 [1]: 2 μg mL^–1 | liver microsomes Clint ([2]; human): < 11.6 µL/min/mg | liver microsomes t1/2 ([2]; human): > 2 h | liver microsomes Clint ([2]; mouse C57BL/6): < 11.6 µL/min/mg | liver microsomes t1/2 ([2]; mouse C57BL/6): > 2 h | metabolism in murine liver microsomes ([2]; over 2 h): not metabolized | liver microsomes Clint ([2]; rat (Wistar)): < 11.6 µL/min/mg | liver microsomes t1/2 ([2]; rat (Wistar)): > 2 h | MIC A. baumannii DSM-30008 (A. baumannii DSM-30008): 0.5 μg mL^–1 | MIC A. baumannii [DSM-30008] (A. baumannii DSM-30008): 0.5 µg/mL (≈ 0.459 µM) | MIC A. baumannii NCTC 13301 (A. baumannii NCTC 13301): 8–16 μg mL^–1 | MIC A. baumannii ATCC 17978 (A. baumannii ATCC 17978): 16 μg mL^–1 | plasma t1/2 (mouse CD-1 plasma, 1 μM): >4 h | plasma stability (degradation) (over 4 h): no degradation | Kd [3]: 1400 ± 400 nM | IC50 HepG2 (HepG2): > 37 µg/mL | plasma t1/2 [4]: >4 h | MIC E. coli [ATCC25922] (E. coli ATCC25922): 1 µg/mL (≈ 0.919 µM) | plasma t1/2 [5]: >4 h | MIC P. aeruginosa PA14 DSM 19882 [6]: 16 μg mL^–1 | MIC P. aeruginosa [PA01] (P. aeruginosa PA01): 1 µg/mL (≈ 0.919 µM) | MIC Pseudomonas aeruginosa PA01 DSM 22644 (P. aeruginosa PA01): 1 μg mL^–1 | MIC P. aeruginosa 84389 [7]: 16–32 μg mL^–1 | MIC P. aeruginosa 83979 [8]: 8–16 μg mL^–1 | MIC K. pneumoniae [DSM-30104] (K. pneumoniae DSM-30104): 4 µg/mL (≈ 3.68 µM)
